According to US20230339937A1, “CONDENSED RING COMPOUNDS THAT INHIBIT H-PGDS” (SATO PHARMACEUTICAL CO., LTD., priority 2020, published 2023):

Molecular target: T1, Recombinant human H-PGDS (Homo sapiens, UniProt O60760)
T1 construct: made in house; host or cells: E. coli
Assay: H-PGDS inhibitory activity (prostaglandin D2 production from prostaglandin H2, measured by LC-MS/MS)
Format: biochemical
Conditions: recombinant human H-PGDS 1.0 nM expressed in E. coli; prostaglandin H2 25 μM; preincubated 15 minutes on ice, reacted on ice for 1 minute; concentration that inhibits prostaglandin D2 production by 50%
Procedure, shortened: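 PGD2 formed from 25 µM prostaglandin H2 during a 1-min on-ice reaction was measured by LC-MS/MS after an FeCl2/citric acid stop. The enzyme was 1.0 nM E. coli-expressed human H-PGDS in Tris-HCl pH 8.0 buffer with MgCl2, reduced glutathione and γ-globulin, preincubated with compound for 15 min on ice. Production was normalised to DMSO controls minus the no-enzyme background.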

T1 sequence (O60760 whole entry): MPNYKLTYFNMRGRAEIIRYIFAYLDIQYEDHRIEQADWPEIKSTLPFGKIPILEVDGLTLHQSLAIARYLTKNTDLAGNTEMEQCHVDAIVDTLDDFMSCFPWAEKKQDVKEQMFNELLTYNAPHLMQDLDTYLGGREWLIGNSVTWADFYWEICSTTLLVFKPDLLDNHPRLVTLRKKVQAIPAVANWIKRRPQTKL

SMILES	IC50 [nM]
CO[C@@H]1CN(c2ncc(CO)cn2)C[C@H]1NC(=O)c1ccc(-c2nccc3occc23)cc1 [Example 205, 4-(furo[3,2-c]pyridin-4-yl)-N-((3R,4R)-1-[5-(hydroxymethyl)pyrimidin-2-yl]-4-methoxypyrrolidin-3-yl)benzamide]	5.6
O=C(Nc1ccncc1)c1ccc(-c2nccc3occc23)cc1 [Example 108, 4-(furo[3,2-c]pyridin-4-yl)-N-(pyridin-4-yl)benzamide]	5
O=C(NC1CCNCC1)c1ccc(-c2nccc3occc23)cc1 [Example 142, 4-(furo[3,2-c]pyridin-4-yl)-N-(piperidin-4-yl)benzamide]	3.4
O=C(NC1CCN(c2ccc(CO)cn2)CC1)c1ccc(-c2nccc3occc23)cc1 [Example 169, 4-(furo[3,2-c]pyridin-4-yl)-N-{1-[5-(hydroxymethyl)pyridin-2-yl]piperidin-4-yl}benzamide]	3
O=C(NCC1CCOCC1)c1ccc(-c2nccc3occc23)cc1 [Example 82, 4-(furo[3,2-c]pyridin-4-yl)-N-[(tetrahydro-2H-pyran-4-yl)methyl] benzamide]	11
O=C(N[C@H]1CC[C@H](NC2COC2)CC1)c1ccc(-c2nccc3occc23)cc1 [Example 295, 4-(furo[3,2-c]pyridin-4-yl)-N-[trans-4-(oxetan-3-ylamino)cyclohexyl]benzamide]	2.1
Cc1cc2occc2c(-c2ccc(C(=O)N[C@H]3CC[C@H](O)CC3)cc2)n1 [Example 333, N-(trans-4-hydroxycyclohexyl)-4-(6-methylfuro[3,2-c]pyridin-4-yl)benzamide]	2.3
COc1cc(OC)nc(N2CCC(NC(=O)c3ccc(-c4nccc5occc45)cc3)CC2)n1 [Example 163]	2.6
CO[C@H]1CC[C@H](NC(=O)c2ccc(-c3nccc4occc34)cc2)CC1 [Example 285, 4-(furo[3,2-c]pyridin-4-yl)-N-(trans-4-methoxycyclohexyl)benzamide]	2
CC(C)(O)[C@@H]1CC[C@@H](NC(=O)c2ccc(-c3nccc4occc34)cc2)CO1 [Example 214, 4-(furo[3,2-c]pyridin-4-yl)-N-[(3R,6S)-6-(2-hydroxypropan-2-yl)tetrahydro-2 H-pyran-3-yl]benzamide]	3.4
Cc1cc2occc2c(-c2ccc(C(=O)N[C@H]3CC[C@H](C(C)(C)O)CC3)cc2F)n1 [Example 321, 3-fluoro-N-[trans-4-(2-hydroxypropan-2-yl)cyclohexyl]-4-(6-methylfuro[3,2-c]pyridin-4-yl)benzamide]	5.5
O=C(N[C@H]1C[C@@H](O)C1)c1ccc(-c2nccc3occc23)cc1 [Example 269, 4-(furo[3,2-c]pyridin-4-yl)-N-(cis-3-hydroxycyclobutyl)benzamide]	5.2
CC(C)(O)[C@H]1CC[C@@H](NC(=O)c2ccc(-c3nccc4occc34)cc2)CC1 [Example 354, 4-(furo[3,2-c]pyridin-4-yl)-N-[cis-4-(2-hydroxypropan-2-yl)cyclohexyl]benzamide]	35
O=C(Nc1cccnc1)c1ccc(-c2nccc3occc23)cc1 [Example 103, 4-(furo[3,2-c]pyridin-4-yl)-N-(pyridin-3-yl)benzamide]	2.1
Cc1cc2[nH]ccc2c(-c2ccc(C(=O)N[C@H]3CC[C@H](C(C)(C)O)CC3)cc2)n1 [Example 338, N-[trans-4-(2-hydroxypropan-2-yl)cyclohexyl]-4-(6-methyl-1H-pyrrolo[3,2-c]pyridin-4-yl)benzamide]	2.4
O=C(NCCCCO)c1ccc(-c2nccc3occc23)cc1 [Example 96, 4-(furo[3,2-c]pyridin-4-yl)-N-(4-hydroxybutyl) benzamide]	17
O=C(N[C@H]1COCCN(c2ncccn2)C1)c1ccc(-c2nccc3occc23)cc1 [Example 225, (R)-4-(furo[3,2-c]pyridin-4-yl)-N-[4-(pyrimidin-2-yl)-1,4-oxazepan-6-yl]benzamide]	6.5
O=C(N[C@@H]1CN(c2ncc(CO)cn2)C[C@@H]1O)c1ccc(-c2nccc3occc23)cc1 [Example 208, 4-(furo[3,2-c]pyridin-4-yl)-N-((3R,4S)-4-hydroxy-1-[5-(hydroxymethyl)pyrimidin-2-yl]pyrrolidin-3-yl)benzamide]	14
CC(C)(O)[C@H]1CC[C@H](NC(=O)c2ccc(-c3ncc(CO)c4occc34)cc2)CC1 [Example 135, 4-[7-(hydroxymethyl)furo[3,2-c]pyridin-4-yl]-N-[trans-4-(2-hydroxypropan-2-yl)cyclohexyl]benzamide]	14
O=C(N[C@@H]1CC[C@@H](O)C1)c1ccc(-c2nccc3occc23)cc1 (relative stereo) [Example 268, 4-(furo[3,2-c]pyridin-4-yl)-N-(trans-3-hydroxycyclopenthyl)benzamide]	6.4
O=C(N[C@H]1CCN(CC(F)(F)F)C1)c1ccc(-c2nccc3occc23)cc1 [Example 199, (S)-4-(furo[3,2-c]pyridin-4-yl)-N-[1-(2,2,2-trifluoroethyl)pyrrolidin-3-yl]benzamide]	9.7
O=C(NCCCCCCO)c1ccc(-c2nccc3occc23)cc1 [Example 90, 4-(furo[3,2-c]pyridin-4-yl)-N-(6-hydroxyhexyl) benzamide]	15

Stronger by IC50, values ahead:

IC50 [nM]	SMILES
1.6	CC[C@]1(O)CC[C@H](NC(=O)c2ccc(-c3nccc4occc34)cc2)CC1 [Example 289, N-(trans-4-ethyl-4-hydroxycyclohexyl)-4-(furo[3,2-c]pyridin-4-yl)benzamide]
0.96	O=C(NC1CCN(CC(F)(F)F)CC1)c1ccc(-c2nccc3occc23)cc1 [Example 180, 4-(furo[3,2-c]pyridin-4-yl)-N-[1-(2,2,2-trifluoroethyl)piperidin-4-yl]benzamide]
1.7	Cc1ccnc(N2CCC(NC(=O)c3ccc(-c4nccc5occc45)cc3)CC2)c1 [Example 150, 4-(furo[3,2-c]pyridin-4-yl)-N-[1-(4-methylpyridin-2-yl)piperidin-4-yl]benzamide]
0.85	O=C(NCCCCCCO)c1ccc(-c2nccc3[nH]ccc23)cc1 [Example 17, N-(6-hydroxyhexyl)-4-(1H-pyrrolo[3,2-c]pyridin-4-yl)benzamide]
1.8	O=C(N[C@H]1CC[C@H](N2CCC(F)(F)C2)CC1)c1ccc(-c2nccc3occc23)cc1 [Example 306, N-[trans-4-(3,3-difluoropyrrolidin-1-yl)cyclohexyl]-4-(furo[3,2-c]pyridin-4-yl)benzamide]
0.83	N#Cc1cnc(N2CCC(NC(=O)c3ccc(-c4nccc5occc45)cc3)CC2)nc1 [Example 173, N-[1-(5-cyanopyrimidin-2-yl)piperidin-4-yl]-4-(furo[3,2-c]pyridin-4-yl)benzamide]
0.45	O=C(NC1CCN(c2ccccn2)CC1)c1ccc(-c2nccc3occc23)cc1 [Example 118, 4-(furo[3,2-c]pyridin-4-yl)-N-[1-(pyridin-2-yl)piperidin-4-yl]benzamide]
0.87	CCO[C@H]1CC[C@H](NC(=O)c2ccc(-c3nccc4occc34)cc2)CC1 [Example 287, N-(trans-4-ethoxycyclohexyl)-4-(furo[3,2-c]pyridin-4-yl)benzamide]
0.94	O=C(NC1CCN(c2ncccn2)CC1)c1ccc(-c2nccc3[nH]ccc23)cc1 [Example 336, N-[1-(pyrimidin-2-yl)piperidin-4-yl]-4-(1H-pyrrolo[3,2-c]pyridin-4-yl)benzamide]
1.2	O=C(NCc1cc[nH]n1)c1ccc(-c2nccc3[nH]ccc23)cc1 [Example 54, N-[(1H-pyrazol-3-yl)methyl]-4-(1H-pyrrolo[3,2-c]pyridin-4-yl)benzamide]
1.1	O=C(N[C@H]1CC[C@H](NCC(F)F)CC1)c1ccc(-c2nccc3occc23)cc1 [Example 294, N-{trans-4-[(2,2-difluoroethyl)amino]cyclohexyl}-4-(furo[3,2-c]pyridin-4-yl)benzamide]
1	CC(C)(O)[C@H]1CC[C@H](NC(=O)c2ccc(-c3nccc4[nH]ccc34)c(F)c2)CC1 [Example 340, 3-fluoro-N-[trans-4-(2-hydroxypropan-2-yl)cyclohexyl]-4-(1H-pyrrolo[3,2-c]pyridin-4-yl)benzamide]
1.8	CC(C)(O)[C@H]1CC[C@H](NC(=O)c2ccc(-c3nccc4occc34)cc2)CC1 [Example 124, 4-(furo[3,2-c]pyridin-4-yl)-N-[trans-4-(2-hydroxypropan-2-yl)cyclohexyl]benzamide]
0.83	O=C(NCC1CCCO1)c1ccc(-c2nccc3[nH]ccc23)cc1 (centres unmarked) [Example 20, 4-(1H-pyrrolo[3,2-c]pyridin-4-yl)-N-[(tetrahydrofuran-2-yl)methyl] benzamide]
0.46	CC(=O)NCCCCNC(=O)c1ccc(-c2nccc3[nH]ccc23)cc1 [Example 29, N-(4-acetamidobutyl)-4-(1H-pyrrolo[3,2-c]pyridin-4-yl)benzamide]
1.7	C[C@]1(O)CC[C@@H](NC(=O)c2ccc(-c3nccc4occc34)cc2)CC1 [Example 283, 4-(furo[3,2-c]pyridin-4-yl)-N-(cis-4-hydroxy-4-methylcyclohexyl)benzamide]
1	N#Cc1cc(N2CCC(NC(=O)c3ccc(-c4nccc5occc45)cc3)CC2)ccn1 [Example 166, N-[1-(2-cyanopyridin-4-yl)piperidin-4-yl]-4-(furo[3,2-c]pyridin-4-yl)benzamide]
0.75	CC(C)(O)[C@H]1CC[C@H](NC(=O)c2ccc(-c3nccc4[nH]ccc34)cc2)CC1 [Example 2, N-[trans-4-(2-hydroxypropan-2-yl)cyclohexyl]-4-(1H-pyrrolo[3,2-c]pyridin-4-yl)benzamide]
1.4	CC(C)(O)C(=O)N1CCC(NC(=O)c2ccc(-c3nccc4occc34)cc2)CC1 [Example 245, 4-(furo[3,2-c]pyridin-4-yl)-N-[1-(2-hydroxy-2-methylpropanoyl)piperidin-4-yl]benzamide]
